Target: T1, TREK-1 (Homo sapiens, UniProt O95069)
T1 construct: expressed in transfected cells; host or cells: Xenopus laevis oocytes injected with cRNA
T1 sequence (O95069 1-426): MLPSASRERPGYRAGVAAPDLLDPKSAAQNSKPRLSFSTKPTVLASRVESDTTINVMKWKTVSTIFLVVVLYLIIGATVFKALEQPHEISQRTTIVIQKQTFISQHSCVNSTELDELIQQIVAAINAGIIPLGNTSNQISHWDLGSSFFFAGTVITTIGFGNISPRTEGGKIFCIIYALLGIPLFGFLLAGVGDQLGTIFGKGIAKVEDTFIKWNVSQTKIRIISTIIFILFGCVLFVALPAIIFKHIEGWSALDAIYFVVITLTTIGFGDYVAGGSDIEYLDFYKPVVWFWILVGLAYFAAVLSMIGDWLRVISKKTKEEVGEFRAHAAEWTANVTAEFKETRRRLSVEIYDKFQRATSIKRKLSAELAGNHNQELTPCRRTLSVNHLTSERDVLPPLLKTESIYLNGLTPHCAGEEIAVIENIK
Assay: TEVC selectivity in X. laevis oocytes, TREK-1
Format: cell-based
Conditions: mean ± SD, n = 4, read-out: Effect on TREK-1 (inhibition; negative = activating)
Method: After confirming compound 6f simultaneous blockade of TASK-1, KV1.5, and NaV1.5, other cardiac channels (Kir2.1, TREK-1, TASK-4) were tested for selectivity at 100 μM (Fig. 8).
To obtain X. laevis oocytes, the frogs were anesthetized with 2 g/L of tricaine methanesulfonate, and the ovarian lobes were mechanically separated with forceps. The oocytes were incubated for 120 min in an OR2 solution containing in mM: NaCl 82.5, KCl 2, MgCl2 1, HEPES 5 (pH 7.5) supplemented with 2 mg/ml of collagenase II (Sigma) to remove residual connective tissue and obtain individual oocytes. […]
In order to overexpress the channel in the oocyte, each of the channels to be measured was subcloned (complementary DNA (cDNA); human TASK-1 (KCNK3, NM_002246), h KV1.5 (KCNA5, NM_002234), h NaV1.5 (hH1, M77235), TASK-4/TALK-2 (KCNK17, NM_AF358910), TREK-1 (KCNK2, AF004711) and Kir2.1 (KCNJ2, NM_017296) into pSGEM, pBF1 or pSP64 expression vector, and the cDNA was linearized with NheI or MluI. Complementary RNA (cRNA) was synthesized with the mMESSAGE mMACHINE-Kit (Ambion). The quality of the cRNA was tested on an agarose gel by electrophoresis. cRNA was quantified using a UV-Vis spectrophotometer (NanoDrop 2000). […] After this time, the overexpression of each channel was monitored through electrophysiology. […]

CCCCN(CCCC)CC(=O)Nc1ccc(OC)cc1OC [Compound 6f, 2-(dibutylamine)-N-(2,4-dimethoxiphenyl)acetamide]
inhibition at 100 µM: -8.71%

Source: PMC12131194, “Rational design, synthesis, and evaluation of novel polypharmacological compounds targeting NaV1.5, KV1.5, and K2P channels for atrial fibrillation” (The Journal of Biological Chemistry, 2025)
